Laboratory results from ChEMBL document CHEMBL1146143, “New ligand-based approach for the discovery of antitrypanosomal compounds” (2006).

How the values were obtained:
J774 [1] = assay: Unspecific cytotoxicity against murine J774 macrophages at 1 ug/ml; format: functional, Mus musculus
Mus musculus = assay: Antitrypanosomal activity against Trypanosoma cruzi infected NMRI mice at 50 mg/kg/day; format: functional
J774 [2] = assay: Unspecific cytotoxicity against murine J774 macrophages at 100 ug/ml; format: functional, Mus musculus
Trypanosoma cruzi [3] = assay: Antitrypanosomal activity against Trypanosoma cruzi epimastigotes at 1 ug/ml; format: functional
Trypanosoma cruzi [4] = assay: Antitrypanosomal activity against Trypanosoma cruzi epimastigotes at 100 ug/ml; format: functional
Trypanosoma cruzi [5] = assay: Antitrypanosomal activity against Trypanosoma cruzi epimastigotes at 10 ug/ml; format: functional
J774 [6] = assay: Unspecific cytotoxicity against murine J774 macrophages at 10 ug/ml; format: functional, Mus musculus
Trypanosoma cruzi [7] = assay: Antitrypanosomal activity against Trypanosoma cruzi amastigotes at 100 ug/ml; format: functional
Trypanosoma cruzi [8] = assay: Antitrypanosomal activity against Trypanosoma cruzi amastigotes at 10 ug/ml; format: functional
Trypanosoma cruzi [9] = assay: Antitrypanosomal activity against Trypanosoma cruzi amastigotes at 1 ug/ml; format: functional

| Compound | Activity (J774 [1]) [%] | Activity (Mus musculus) [%] | Activity (J774 [2]) [%] | Activity (Trypanosoma cruzi [3]) [%] | Activity (Trypanosoma cruzi [4]) [%] | Activity (Trypanosoma cruzi [5]) [%] | Activity (J774 [6]) [%] | Activity (Trypanosoma cruzi [7]) [%] | Activity (Trypanosoma cruzi [8]) [%] | Activity (Trypanosoma cruzi [9]) [%] |
| --- | --- | --- | --- | --- | --- | --- | --- | --- | --- | --- |
| CN1CC(=O)N(C)c2cc([N+](=O)[O-])ccc21 | 0 | 60.7 | 0 | 22.5 | 72.7 | 21.6 | 0 | 85.4 |  |  |
| O=C1Nc2cc([N+](=O)[O-])ccc2N2CCCCC12 (stereo not given) | 2.4 |  | 34.2 | 3.9 | 77 | 30.9 | 5.6 |  |  |  |
| O=C1Nc2cc([N+](=O)[O-])ccc2N2Cc3ccccc3CC12 (stereo not given) | 0 |  | 50.4 | 19.4 | 72.1 | 29.4 | 0 |  |  |  |
| CN1C(=O)C[N+](C)(C)c2ccc([N+](=O)[O-])cc21.[Cl-] | 9.8 |  | 64.8 | 0.9 | 67.2 | 9 | 10.5 |  |  |  |
| O=C1CN(CCCCCCCl)c2ccc([N+](=O)[O-])cc2N1 | 16.6 |  | 97.4 | 23.2 | 90.9 | 72.1 | 32.9 |  | 100 |  |
| O=C(CN1CCCCC1)Nc1cc([N+](=O)[O-])ccc1Cl |  |  |  | 21.9 | 11 | 1.3 |  |  |  |  |
| O=C(CN1CCCCC1)Nc1cc([N+](=O)[O-])ccc1F |  |  |  | 0 | 14.3 | 4.4 |  |  |  |  |
| O=C(CCl)Nc1cc([N+](=O)[O-])ccc1N1CCCCC1 | 8.1 |  | 24.9 | 7.1 | 84 | 34.8 | 6.3 |  |  |  |
| O=C1Nc2cc([N+](=O)[O-])ccc2N2CCCC12 (stereo not given) | 0 |  | 23.6 | 25.6 | 90.5 | 70.3 | 0 | 30.2 | 13.3 |  |
| CN1C(=O)CN(CCCCCCl)c2ccc([N+](=O)[O-])cc21 | 0 |  | 99.5 | 15 | 83.3 | 82.2 | 17.8 |  |  |  |
| O=C(Cn1ccnc1[N+](=O)[O-])NCc1ccccc1 [BENZNIDAZOLE] | 1.9 |  | 1.4 |  |  |  | 1.6 | 96.6 | 9.2 | 83.2 |
| CC1CS(=O)(=O)CCN1/N=C/c1ccc([N+](=O)[O-])o1 (stereo not given) [NIFURTIMOX] | 0 | 100 | 25.9 | 75.5 | 98.7 | 90 | 0.6 | 100 | 94.4 | 88.1 |
